Results as given in patent publication EP0326329B1, “Quinazoline derivatives useful as insecticides” (Dow AgroSciences LLC, priority 1988, dated 1989).

What was measured:
Type in all cases: in vivo
[1] = test system: Erysiphe graminis tritici (powdery mildew); test: Greenhouse Test 1, foliar spray fungicide screen (POWD MDEW), host wheat; details: disease control rating, 400 ppm (+++ at 100 ppm)
[2] = test system: Pyricularia oryzae (rice blast); details: disease control rating, foliar spray, host rice; 400 ppm (+++ at 100 ppm)
[3] = test system: Puccinia recondita tritici (leaf rust); test: Greenhouse Test 1, foliar spray fungicide screen (LEAF RUST), host wheat; details: disease control rating, 400 ppm (+++ at 100 ppm)
[4] = test system: Botrytis cinerea (gray mold); test: Greenhouse Test 1, foliar spray fungicide screen (GRAY MOLD), host grape berries; details: disease control rating, 400 ppm (+++ at 100 ppm)
[5] = test system: Pseudoperonospora cubensis (downy mildew); test: Greenhouse Test 1, foliar spray fungicide screen (DOWN MDEW), host squash; details: disease control rating, 400 ppm (+++ at 100 ppm)
[6] = test system: Southern corn rootworm (Diabrotica undecimpuctata howardi Barber); test: Mite/insect screen, soil treatment (CRW); details: percent mortality, soil treatment; for mortality at 24 ppm / mortality at 12 ppm: Diabrotica, read-out: CRW RESULTS %
In short: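 Compounds dissolved in acetone/alcohol (50:50) with Toximul R/S emulsifiers, diluted with water. Soil (15 g, with presoaked corn seed) treated with 1 mL test solution, dried 6–12 h, then five 2–3 instar larvae added; held at 23°C. Percent mortality and phytotoxicity scored after standard exposure periods.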

[7] = test system: southern armyworm (Spodopetra eridania Cramer); test: Mite/insect screen, sprayed squash leaves (SAW); details: percent mortality; for mortality at 400 ppm / mortality at 200 ppm: Spodoptera eridania, read-out: SAW RESULTS %
In short: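 Compounds were dissolved in 50:50 acetone/alcohol containing sulfonate/nonionic emulsifier blends (23 g and 13 g per liter) and diluted with water to test concentrations. Leaves were sprayed on both surfaces to runoff and dried for one hour. Percent mortality and phytotoxicity were scored after standard exposure periods.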

[8] = test system: Twospotted spider mites (Tetranychus urticae Koch); test: Mite/insect screen, sprayed squash cotyledons (SM); details: percent mortality; for mortality at 400 ppm / mortality at 200 ppm: Tetranychus urticae, read-out: SM RESULTS %
In short: (§1)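 Steps: formulate compound in acetone/alcohol 50:50 carrying emulsifiers; dilute with water; spray leaves until runoff on upper and lower surfaces; air-dry one hour; for armyworm, excise two […] leaves into a dish of larvae; after exposure, score mortality and plant injury.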

[9] = test system: melon aphids (Aphis gossypii Glover); test: Mite/insect screen, sprayed squash cotyledons (MA); details: percent mortality; for mortality at 400 ppm / mortality at 200 ppm: Aphis gossypii, read-out: MA RESULTS %
In short: as §1

| SMILES | POWD MDEW [1] | RICE BLAST [2] | LEAF RUST [3] | GRAY MOLD [4] | DOWN MDEW [5] | mortality at 24 ppm ([6]; CRW rate 24.00 ppm) [%] | mortality at 400 ppm ([7]; spray rate 400 ppm) [%] | mortality at 400 ppm ([8]; spray rate 400 ppm) [%] | mortality at 400 ppm ([9]; spray rate 400 ppm) [%] | mortality at 12 ppm ([6]; CRW rate 12.00 ppm) [%] | mortality at 200 ppm ([7]; spray rate 200 ppm) [%] | mortality at 200 ppm ([8]; spray rate 200 ppm) [%] | mortality at 200 ppm ([9]; spray rate 200 ppm) [%] | other results |
| --- | --- | --- | --- | --- | --- | --- | --- | --- | --- | --- | --- | --- | --- | --- |
| FC(F)(F)Oc1ccc2ncnc(NCCc3ccc(Oc4ccccc4)cc3)c2c1 [Example 44, 6-(trifluoromethoxy)-N-[2-(4-phenoxyphenyl)ethyl]-4-quinazolinamine] | - (- = 0-19% control at 400 ppm) | - (- = 0-19% control at 400 ppm) | - (- = 0-19% control at 400 ppm) | - (- = 0-19% control at 400 ppm) | + (+ = 20-89% control at 400 ppm) | 0 | 0 | 0 | 0 | – | – | – | – | – |
| c1ccc(CCOc2ncnc3ccccc23)cc1 [Example 33, 4-(2-phenylethoxy)quinazoline] | ++ (++ = 90-100% control at 400 ppm) | - (- = 0-19% control at 400 ppm) | +++ (+++ = 90-100% control at 100 ppm) | - (- = 0-19% control at 400 ppm) | ++ (++ = 90-100% control at 400 ppm) | 80 | 0 | 80 | 100 | 0 | 0 | 50 | 80 | – |
| Fc1cccc2c(OCCc3ccc(-c4ccccc4)cc3)ncnc12 [Example 93, 8-fluoro-4-[2-(1,1'-biphenyl)-4-ylethoxy]quinazoline] | +++ (+++ = 90-100% control at 100 ppm) | +++ (+++ = 90-100% control at 100 ppm) | +++ (+++ = 90-100% control at 100 ppm) | - (- = 0-19% control at 400 ppm) | +++ (+++ = 90-100% control at 100 ppm) | – | – | – | – | – | – | – | – | CRW RESULTS % ([6]; CRW rate 12.00 ppm): 0%; CRW RESULTS % ([6]; CRW rate 24.00 ppm): 0%; SAW RESULTS % ([7]; spray rate 200 ppm): 100%; SAW RESULTS % ([7]; spray rate 400 ppm): 100%; SM RESULTS % ([8]; spray rate 200 ppm): 80%; SM RESULTS % ([8]; spray rate 400 ppm): 0%; MA RESULTS % ([9]; spray rate 200 ppm): 80%; MA RESULTS % ([9]; spray rate 400 ppm): 0% |
| C=CC(CCc1ccccc1)Oc1ncnc2ccccc12 (stereo not shown) [Example 148, 4-[(1-benzyl-3-buten-2-yl)oxy]quinazoline] | ++ (++ = 90-100% control at 400 ppm) | ++ (++ = 90-100% control at 400 ppm) | + (+ = 20-89% control at 400 ppm) | - (- = 0-19% control at 400 ppm) | ++ (++ = 90-100% control at 400 ppm) | 0 | 0 | 0 | 0 | – | – | – | – | – |
| Fc1cccc2c(OCCc3ccc(-c4ccccc4)cc3)ncnc12 [Example 116, 8-fluoro-4-[2-(1,1'-biphenyl)-4-ylethoxy]quinazoline] | ++ (++ = 90-100% control at 400 ppm) | +++ (+++ = 90-100% control at 100 ppm) | + (+ = 20-89% control at 400 ppm) | - (- = 0-19% control at 400 ppm) | +++ (+++ = 90-100% control at 100 ppm) | 0 | – | 0 | 0 | 0 | – | – | – | SAW RESULTS % ([7]; spray rate 200 ppm): 0%; SAW RESULTS % ([7]; spray rate 400 ppm): 0% |
| C=CC(CCOc1ncnc2ccccc12)CCc1ccccc1 (stereo not shown) [Example 130, 4-[3-ethenyl-5-phenyl-pentyloxy]quinazoline] | + (+ = 20-89% control at 400 ppm) | - (- = 0-19% control at 400 ppm) | - (- = 0-19% control at 400 ppm) | - (- = 0-19% control at 400 ppm) | - (- = 0-19% control at 400 ppm) | 0 | 0 | 70 | 100 | 0 | 0 | 80 | 80 | – |
| CC(C)c1ccc(CCNc2ncnc3cc(Cl)ccc23)cc1 [Example 40, 7-chloro-N-[2-[4-(i-propyl)phenyl]ethyl]-4-quinazolinamine] | +++ (+++ = 90-100% control at 100 ppm) | ++ (++ = 90-100% control at 400 ppm) | +++ (+++ = 90-100% control at 100 ppm) | - (- = 0-19% control at 400 ppm) | +++ (+++ = 90-100% control at 100 ppm) | 0 | 0 | 90 | 0 | 0 | 40 | 80 | 20 | – |
| CCOc1ccc(CCOc2ncnc3c(F)cccc23)cc1 [Example 170, 4-[2-(4-ethoxyphenyl)ethoxy]-8-fluoroquinazoline] | +++ (+++ = 90-100% control at 100 ppm) | +++ (+++ = 90-100% control at 100 ppm) | +++ (+++ = 90-100% control at 100 ppm) | - (- = 0-19% control at 400 ppm) | +++ (+++ = 90-100% control at 100 ppm) | 0 | 100 | 100 | 100 | 0 | 0 | 20 | 80 | – |
| c1ccc(C(COc2ncnc3ccccc23)c2ccccc2)cc1 [Example 67, 4-(2,2-diphenylethoxy)quinazoline] | + (+ = 20-89% control at 400 ppm) | + (+ = 20-89% control at 400 ppm) | - (- = 0-19% control at 400 ppm) | - (- = 0-19% control at 400 ppm) | ++ (++ = 90-100% control at 400 ppm) | 0 | 0 | 60 | 30 | – | – | – | – | – |
| c1ccc(Oc2ccc(CCCc3ncnc4ccccc34)cc2)cc1 [Example 164, 4-[3-(4-phenoxyphenyl)propyl]quinazoline] | + (+ = 20-89% control at 400 ppm) | +++ (+++ = 90-100% control at 100 ppm) | +++ (+++ = 90-100% control at 100 ppm) | - (- = 0-19% control at 400 ppm) | +++ (+++ = 90-100% control at 100 ppm) | 0 | 40 | 20 | 80 | 0 | 40 | 80 | 80 | – |
| FC(F)(F)c1cccc(CCOc2ncnc3ccccc23)c1 [Example 51, 4-[2-[3-(trifluoromethyl)phenyl]ethoxy]quinazoline] | ++ (++ = 90-100% control at 400 ppm) | +++ (+++ = 90-100% control at 100 ppm) | ++ (++ = 90-100% control at 400 ppm) | - (- = 0-19% control at 400 ppm) | +++ (+++ = 90-100% control at 100 ppm) | 0 | 0 | 0 | 0 | – | – | – | – | – |
| CCCCOc1ccc(CCOc2ncnc3c(F)cccc23)cc1 [Example 156, 8-fluoro-4-[2-(4-butoxyphenyl)ethoxy]quinazoline] | +++ (+++ = 90-100% control at 100 ppm) | +++ (+++ = 90-100% control at 100 ppm) | +++ (+++ = 90-100% control at 100 ppm) | - (- = 0-19% control at 400 ppm) | +++ (+++ = 90-100% control at 100 ppm) | 0 | 0 | 80 | 100 | 0 | 60 | 100 | 100 | – |
| c1ccc(Sc2cccc(CCOc3ncnc4ccccc34)c2)cc1 [Example 137, 4-[2-[3-(phenylthio)phenyl]ethoxy]quinazoline] | +++ (+++ = 90-100% control at 100 ppm) | +++ (+++ = 90-100% control at 100 ppm) | +++ (+++ = 90-100% control at 100 ppm) | - (- = 0-19% control at 400 ppm) | +++ (+++ = 90-100% control at 100 ppm) | 100 | 0 | 0 | 0 | 0 | 0 | 0 | 60 | – |
